# Assay results reported in PubChem BioAssay AID192 (DTP/NCI, 2004).
# Several values for one entry are separate records, joined by “and”; a condition that tells them apart may be missing. Equal entries are not always repeated. Toxic doses and inconclusive results are not listed.
# Tested on: BDF1 mice, B16 melanoma ip, median survival T/C
# Experiment: NCI In Vivo Anticancer Drug Screen. Data for tumor model B16 Melanoma (intraperitoneal) in B6D2F1 (BDF1) mice
# Conditions: endpoint: median survival time, higher = longer survival
# How it was run: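 The ratio T/C compares compound-treated mice with vehicle-treated controls, using survival or tumor size as the endpoint in a transplantable tumor model.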
# [1] = dose: 0.25 mg/kg/injection, schedule: Q01DX009 (ip), vehicle: water
# [2] = dose: 25.0 mg/kg/injection, schedule: Q01DX009 (ip), vehicle: Klucel (hydroxypropylcellulose) (HPC)
# [3] = dose: 50.0 mg/kg/injection, schedule: Q01DX009 (ip), vehicle: Klucel (hydroxypropylcellulose) (HPC)
# [4] = dose: 100.0 mg/kg/injection, schedule: Q01DX009 (ip), vehicle: Klucel (hydroxypropylcellulose) (HPC)
# [5] = dose: 200.0 mg/kg/injection, schedule: Q01DX009 (ip), vehicle: Klucel (hydroxypropylcellulose) (HPC)
# [6] = dose: 400.0 mg/kg/injection, schedule: Q01DX009 (ip), vehicle: Klucel (hydroxypropylcellulose) (HPC)
# [7] = dose: 12.5 mg/kg/injection, schedule: Q01DX009 (ip), vehicle: saline with Tween-80
# [8] = dose: 25.0 mg/kg/injection, schedule: Q01DX009 (ip), vehicle: saline with Tween-80
# [9] = dose: 50.0 mg/kg/injection, schedule: Q01DX009 (ip), vehicle: saline with Tween-80
# [10] = dose: 100.0 mg/kg/injection, schedule: Q01DX009 (ip), vehicle: saline with Tween-80
smiles,measurement,setting,value
CC[C@]1(O)C[C@H]2CN(CCc3c([nH]c4ccccc34)[C@@](C(=O)OC)(c3cc4c(cc3OC)N(C)[C@H]3[C@@](O)(C(=O)OC)[C@H](OC(C)=O)[C@]5(CC)C=CCN6CC[C@]43[C@@H]65)C2)C1,T/C,"dose: 0.03 mg/kg/injection, schedule: Q01DX009 (ip), vehicle: saline",152 % of control
same,T/C,"dose: 0.05 mg/kg/injection, schedule: Q01DX009 (ip), vehicle: saline",161 % of control
same,T/C,"dose: 0.06 mg/kg/injection, schedule: Q01DX009 (ip), vehicle: water",165 % of control
same,T/C,"dose: 0.1 mg/kg/injection, schedule: Q01DX009 (ip), vehicle: saline",152 % of control and 155 % of control
same,T/C,"dose: 0.12 mg/kg/injection, schedule: Q01DX009 (ip), vehicle: water",110 % of control
same,T/C,"dose: 0.2 mg/kg/injection, schedule: Q01DX009 (ip), vehicle: saline",186 % of control and 189 % of control
same,T/C,"dose: 0.22 mg/kg/injection, schedule: Q01DX009 (ip), vehicle: saline",196 % of control
same,T/C,"dose: 0.22 mg/kg/injection, schedule: Q01DX009 (ip), vehicle: water",197 % of control
same,T/C,[1],163 % of control and 216 % of control
same,T/C,"dose: 0.36 mg/kg/injection, schedule: Q01DX009 (ip), vehicle: saline",240 % of control
same,T/C,"dose: 0.36 mg/kg/injection, schedule: Q01DX009 (ip), vehicle: water",181 % of control
same,T/C,"dose: 0.39 mg/kg/injection, schedule: Q04DX003 (ip), vehicle: saline",162 % of control
same,T/C,"dose: 0.4 mg/kg/injection, schedule: Q01DX009 (ip), vehicle: saline",219 % of control
same,T/C,"dose: 0.5 mg/kg/injection, schedule: Q04DX003 (ip), vehicle: saline",154 % of control
same,T/C,"dose: 0.6 mg/kg/injection, schedule: Q01DX009 (ip), vehicle: saline",250 % of control
same,T/C,"dose: 0.63 mg/kg/injection, schedule: Q04DX003 (ip), vehicle: saline",151 % of control
same,T/C,"dose: 0.65 mg/kg/injection, schedule: Q04DX003 (ip), vehicle: saline",164 % of control
same,T/C,"dose: 0.8 mg/kg/injection, schedule: Q01DX009 (ip), vehicle: saline",260 % of control and 299 % of control
same,T/C,"dose: 0.8 mg/kg/injection, schedule: Q04DX003 (ip), vehicle: water",161 % of control
same,T/C,"dose: 1.0 mg/kg/injection, schedule: Q04DX003 (ip), vehicle: saline",170 % of control
same,T/C,"dose: 1.08 mg/kg/injection, schedule: Q04DX003 (ip), vehicle: saline",201 % of control
same,T/C,"dose: 1.44 mg/kg/injection, schedule: Q04DX003 (ip), vehicle: water",190 % of control
same,T/C,"dose: 1.8 mg/kg/injection, schedule: Q04DX003 (ip), vehicle: saline",206 % of control
same,T/C,"dose: 2.0 mg/kg/injection, schedule: Q04DX003 (ip), vehicle: saline",212 % of control
same,T/C,"dose: 2.4 mg/kg/injection, schedule: Q04DX003 (ip), vehicle: water",221 % of control
same,T/C,"dose: 2.5 mg/kg/injection, schedule: Q04DX003 (ip), vehicle: saline",189 % of control
same,T/C,"dose: 3.2 mg/kg/injection, schedule: Q04DX003 (ip), vehicle: water",224 % of control
same,T/C,"dose: 4.0 mg/kg/injection, schedule: Q04DX003 (ip), vehicle: saline",254 % of control
same,T/C,"dose: 4.8 mg/kg/injection, schedule: Q01DX001 (ip), vehicle: water",158 % of control
same,T/C,"dose: 216.0 micrograms/kg/injection, schedule: Q01DX009 (ip), vehicle: saline",197 % of control
same,T/C,"dose: 360.0 micrograms/kg/injection, schedule: Q01DX009 (ip), vehicle: water",155 % of control
same,T/C,"dose: 389.0 micrograms/kg/injection, schedule: Q04DX003 (ip), vehicle: saline",158 % of control and 163 % of control
same,T/C,"dose: 600.0 micrograms/kg/injection, schedule: Q01DX009 (ip), vehicle: saline",216 % of control
same,T/C,"dose: 648.0 micrograms/kg/injection, schedule: Q04DX003 (ip), vehicle: saline",152 % of control and 171 % of control and 197 % of control
same,T/C,"dose: 1080.0 micrograms/kg/injection, schedule: Q04DX003 (ip), vehicle: saline",198 % of control
same,T/C,"dose: 1800.0 micrograms/kg/injection, schedule: Q04DX003 (ip), vehicle: saline",203 % of control and 230 % of control
same,T/C,"dose: 3000.0 micrograms/kg/injection, schedule: Q04DX003 (ip), vehicle: saline",213 % of control and 267 % of control
O=C1N(Cl)C(=O)C(c2ccc(Cl)cc2)(c2ccc(Cl)cc2)N1Cl,T/C,"dose: 1.56 mg/kg/injection, schedule: Q01DX009 (ip), vehicle: Klucel (hydroxypropylcellulose) (HPC)",104 % of control
same,T/C,"dose: 3.12 mg/kg/injection, schedule: Q01DX009 (ip), vehicle: Klucel (hydroxypropylcellulose) (HPC)",96 % of control
same,T/C,"dose: 6.25 mg/kg/injection, schedule: Q01DX009 (ip), vehicle: Klucel (hydroxypropylcellulose) (HPC)",104 % of control
same,T/C,"dose: 12.5 mg/kg/injection, schedule: Q01DX009 (ip), vehicle: Klucel (hydroxypropylcellulose) (HPC)",104 % of control
same,T/C,[2],114 % of control and 101 % of control
same,T/C,"dose: 25.0 mg/kg/injection, schedule: Q02DX009 (ip), vehicle: Klucel (hydroxypropylcellulose) (HPC)",103 % of control
same,T/C,[3],112 % of control
same,T/C,"dose: 50.0 mg/kg/injection, schedule: Q02DX009 (ip), vehicle: Klucel (hydroxypropylcellulose) (HPC)",99 % of control
same,T/C,[4],118 % of control
same,T/C,"dose: 100.0 mg/kg/injection, schedule: Q02DX009 (ip), vehicle: Klucel (hydroxypropylcellulose) (HPC)",106 % of control
same,T/C,[5],117 % of control
same,T/C,"dose: 200.0 mg/kg/injection, schedule: Q02DX009 (ip), vehicle: Klucel (hydroxypropylcellulose) (HPC)",96 % of control
same,T/C,[6],118 % of control
C[N+]1=CN(c2ccc(Cl)cc2)Cc2cc(Cl)ccc21,T/C,[4],88 % of control
same,T/C,"dose: 100.0 mg/kg/injection, schedule: Q04DX003 (ip), vehicle: Klucel (hydroxypropylcellulose) (HPC)",88 % of control
same,T/C,[5],86 % of control
same,T/C,"dose: 200.0 mg/kg/injection, schedule: Q04DX003 (ip), vehicle: Klucel (hydroxypropylcellulose) (HPC)",102 % of control
same,T/C,[6],102 % of control
same,T/C,"dose: 400.0 mg/kg/injection, schedule: Q04DX003 (ip), vehicle: Klucel (hydroxypropylcellulose) (HPC)",100 % of control
Cc1cc(Cc2cc(C)cc(C(C)(C)C)c2O)c(O)c(Cc2cc(C)cc(C(C)(C)C)c2O)c1,T/C,"dose: 100.0 mg/kg/injection, schedule: Q04DX003 (ip), vehicle: gum acacia",97 % of control
same,T/C,"dose: 200.0 mg/kg/injection, schedule: Q04DX003 (ip), vehicle: gum acacia",100 % of control
O=[N+]([O-])O.[NH-]C1CCCCC1[NH-].[NH-]C1CCCCC1[NH-].[NH-]C1CCCCC1[NH-].[OH-].[OH-].[OH-].[Pt+4].[Pt+4].[Pt+4] (centres undefined),T/C,[1],109 % of control and 119 % of control
same,T/C,"dose: 0.5 mg/kg/injection, schedule: Q01DX009 (ip), vehicle: water",113 % of control and 123 % of control
CN=C(N)N/N=C(\C)c1ccc2c(c1)Cc1ccccc1-2,T/C,[7],110 % of control
same,T/C,[8],115 % of control
same,T/C,[9],120 % of control
same,T/C,[10],112 % of control
CCN(CC)CCNc1ccc(C)c2sc3ccc(O)cc3c(=O)c12,T/C,[7],110 % of control
same,T/C,[8],161 % of control
same,T/C,[9],182 % of control
same,T/C,[10],172 % of control
CC(C)C(O)(C(=O)OCC1=CC[N+]2(C)CCC(O)C12)C(C)O (centres undefined),T/C,"dose: 12.5 mg/kg/injection, schedule: Q01DX009 (ip), vehicle: water",105 % of control
same,T/C,"dose: 25.0 mg/kg/injection, schedule: Q01DX009 (ip), vehicle: water",107 % of control
same,T/C,"dose: 50.0 mg/kg/injection, schedule: Q01DX009 (ip), vehicle: water",113 % of control
same,T/C,"dose: 100.0 mg/kg/injection, schedule: Q01DX009 (ip), vehicle: water",109 % of control
same,T/C,"dose: 200.0 mg/kg/injection, schedule: Q01DX009 (ip), vehicle: water",108 % of control
C1CC[N-]CC1.CC(=N\O)/C(C)=N/O.CC(=N\O)/C(C)=N/O.[CH2-]C.[Co+2],T/C,[2],111 % of control
same,T/C,[3],102 % of control
COC(=O)Nc1ccc(Cc2ccc(NC(=O)OC)cc2)cc1,T/C,"dose: 6.25 mg/kg/injection, schedule: Q01DX009 (ip), vehicle: saline with Tween-80",107 % of control
same,T/C,[7],110 % of control
same,T/C,[8],112 % of control
same,T/C,[9],115 % of control
CC(C)(C)OC(=O)NC(N)=NCCCC(NC(=O)OC(C)(C)C)C(=O)O (centres undefined),T/C,[9],101 % of control
same,T/C,[10],88 % of control
same,T/C,"dose: 200.0 mg/kg/injection, schedule: Q01DX009 (ip), vehicle: saline with Tween-80",87 % of control
C1OC1CN1CCN(CC2CO2)CC1 (centres undefined),T/C,"dose: 8.0 mg/kg/injection, schedule: Q01DX009 (ip), vehicle: saline with Tween-80",121 % of control
same,T/C,"dose: 16.0 mg/kg/injection, schedule: Q01DX009 (ip), vehicle: saline with Tween-80",119 % of control
